Experimental data: patent US5652220A, “Encapsulation of TRH or its analog” (Takeda Chemical Industries, Ltd., priority 1986, dated 1997)

Experiments:
[1] = drug trapping percentage into microcapsules (amount actually incorporated vs amount charged); type: physicochemical; details: comparison microcapsules, 53 mg TRH, w/o emulsion viscosity about 2,000 cp
Protocol: (§1) The microcapsules obtained by charging TRH in an amount of 1-20% based on PLGA and following the above procedure were tested for drug trapping percentage (percentage of amount actually incorporated into microcapsules to amount charged) and further assayed, in an in vitro dissolution test, for residual TRH in microcapsules after one day of standing in phoshpate buffer (pH 7.0) at 37° C.
(§2) For these microcapsules, the percentage of trapping of CG-3509 was determined and the residual CG-3509 in the microcapsules after one-day standing in phosphate buffer (pH 7.0) at 37° C. was assayed in an in vitro dissolution test.

[2] = in vitro dissolution test: residual drug in microcapsules standing in phosphate buffer (pH 7.0) at 37° C.; type: physicochemical
Protocol: as §1
(b) 1/30M phosphate buffer (pH 7.0), 37° C. (mean for n = 2).
The microcapsules obtained by the procedure of Example 1 were examined for in vitro drug release property and for in vivo drug release property after subcutaneous administration to rats (the residual drug amount in microcapsules at the site of administration was determined).
as §2

trapping percentage ([1]; 4 g PLGA, TRH to PLGA 1.33%): 77%
trapping percentage ([1]; 6 g PLGA, TRH to PLGA 0.88%): 98%
first day release ([2]; Example 2, TRH 2% relative to PLGA, free form or strong acid added): 15.8%
initial release ([2]; Example 2, acetic acid added, TRH 2% relative to PLGA): 33.2%
release of the first day ([2]; TRH concentration relative to PLGA 1%): 65.7%
initial release ([2]; acetic acid added, TRH 5% relative to PLGA): 22.6%
initial release ([2]; comparison microcapsules, TRH to PLGA 0.88%): 67%
initial release ([2]; comparison microcapsules, TRH to PLGA 1.33%): 71%
SMILES: NC(=O)[C@@H]1CCCN1C(=O)[C@H](Cc1cnc[nH]1)NC(=O)[C@@H]1CCC(=O)N1 [TRH, pyroGlu-His-ProNH2]
